Drawing on patent publication US11325899B2, “Benzofurane and benzothiophene derivatives as PGE2 receptor modulators” (IDORSIA PHARMACEUTICALS LTD, priority 2017, dated 2022), this text covers IC50 for 14 compounds.

Common to all, as to assay type: cell-based
The target of one test is T1, PTGER4 (EP4) (Homo sapiens, UniProt P35408).
T1 construct: host or cells: HEK 293 (PathHunter PTGER4 b-arrestin cell line)
In words: hEP4 b-arrestin assay (PathHunter HEK 293 PTGER4 b-arrestin cells). The conditions noted are these: antagonistic activity, beta-arrestin assay; read-out: hEP4 b-arr IC50. In a few lines: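 β-Arrestin recruitment to EP4 was read as enzyme-fragment-complementation chemiluminescence in stably transfected HEK 293 cells. After 15 min compound preincubation at 37 °C (ranges 10 μM–2 nM or 1 μM–0.2 nM), cells were stimulated 120 min with PGE2 at 20 nM, its EC80. IC50 values were fitted from duplicates, with repeat measurements averaged.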

The target of the next test is T2, EP2 receptor (Homo sapiens, UniProt P43116).
T2 construct: SF295 glioblastoma cells express high endogenous EP2 and no EP4; host or cells: SF295 glioblastoma cells
Nature of the test: hEP2 cAMP assay (SF295 glioblastoma cells, HTRF cAMP, PGE2 stimulation). The conditions noted are these: antagonistic activity. As for the experimental part: (§1) The antagonistic activities of the compounds of formula (I) on the EP2 and EP4 receptors are also determined in accordance with the following experimental method.
(§2) Human tumor cell lines expressing endogenously either EP4 or EP2 are used and cAMP accumulation in cells upon PGE2 stimulation is monitored. SF295 glioblastoma cells express high endogenous EP2 and no EP4, whereas BT549 breast cancer cells, express high endogenous EP4 levels and very low EP2 levels.
(§3) As a detection method for cAMP the HTRF (homogeneous time resolved fluorescence) Cisbio kit (HTRF cAMP dynamic 2 kit 20′000 tests Cisbio Cat. #62AM4PEC) was used, which is based on a competitive immunoassay using a Cryptate-labeled anti-cAMP antibody and d2-labeled cAMP. Native cAMP produced by cells or unlabeled cAMP (for the standard curve) compete with exogenously added d2-labeled cAMP (acceptor) for binding to monoclonal anti-cAMP-Eu3+ Cryptate (donor). A FRET signal (Fluorescence Resonance Energy Transfer) is obtained only if the labeled anti-cAMP antibody binds the d2 labelled cAMP, thus the specific signal (i.e. energy transfer) is inversely proportional to the concentration of cAMP in the standard or sample.
The SF295 cells (NCI/No. 0503170) are detached from culture dishes with a cell dissociation buffer (Invitrogen, 13151-014), and collected in growing medium (GM: RPM1640 (Invitrogen 21875)/10% FCS, 1% Penicilin/streptomycin). Cells are counted washed and resuspended in assay buffer (AB; HBSS, 20 mM HEPES, 0.2% BSA; 2 mM IBMX). 4′000 cells in 5 μl of AB are seeded per well of a small volume 384 well plate (black with flat bottom, Greiner 784076).
Stock solutions of test compounds are made at a concentration of 10 mM in DMSO, and serially diluted in DMSO to concentrations required for inhibition dose response curves (tested concentration range 30 μM-0.4 nM; 30 μM-0.015 nM or 1 μM-0.01 nM).
PGE2 (Cayman 14010, stock solution: 75 μM in DMSO) is used as agonist at 75 nM final concentration, corresponding to EC80.
Two point five microliters of diluted compounds are transferred into the assay plate. Plate is pre-incubated 45 minutes at room temperature. Subsequently, 2.5 microliters of PGE2 (final conc. 75 nM) are transferred into the assay plate. Plate is incubated 30 minutes at room temperature. Five μl of each donor (anti-cAMP cryptate) and acceptor (cAMP-d2) are added and the plate is incubated another hour at room temperature in the dark and then read using a BMG LABTECH PHERAstar reader (Excitation: 337 nm, Emission: 620 and 665 nm).
The obtained Delta F (fluorescence) values (665 nm/620 nM) are converted into % cAMP values using the measurements of the cAMP calibrator provided in the kit. For each compound concentration the percentage of cAMP compared to DMSO control value as average±STDEV (each concentration is measured in duplicate) is calculated.
(§4) IC50 values and curves are generated with XLfit software (IDBS) using Dose-Response One Site model 203. When compounds were measured multiple times, mean values are given.
On the technique in general: cAMP levels reflect the balance of adenylyl cyclase and phosphodiesterase activity.

A further test concerns the target T3, EP4 receptor (Homo sapiens, UniProt P35408).
T3 construct: BT549 breast cancer cells, express high endogenous EP4 levels and very low EP2 levels; host or cells: BT549 breast cancer cells
In words: hEP4 cAMP assay (BT549 breast cancer cells, HTRF cAMP, PGE2 stimulation). The conditions noted are these: antagonistic activity, PGE2 6 nM (EC80). As for the experimental part: as §1, §2, §3
The BT549 cells (NCI/No. 0507282) are detached from culture dishes with a cell dissociation buffer (Invitrogen, 13151-014), and collected in growing medium (GM: RPMI1640 (Invitrogen 21875)/10% FCS, 1% Penicilin/streptomycin). Cells are counted washed and resuspended in assay buffer (AB; HBSS, 20 mM HEPES, 0.2% BSA; 2 mM IBMX). 4′000 cells in 5 μl of AB are seeded per well of a small volume 384 well plate (black with flat bottom, Greiner 784076).
Stock solutions of test compounds are made at a concentration of 10 mM in DMSO, and serially diluted in DMSO to concentrations required for inhibition dose response curves (tested concentration range 30 μM-0.4 nM; 30 μM-0.015 nM or 1 uM-0.01 nM).
PGE2 (Cayman 14010, stock solution: 6 μM in DMSO) is used as agonist at 6 nM final concentration, corresponding to EC80.
Two point five microliters of diluted compounds are transferred into the assay plate. Plate is pre-incubated 45 minutes at room temperature. Subsequently, 2.5 microliters of PGE2 (final conc. 6 nM) are transferred into the assay plate. Plate is incubated 30 minutes at room temperature. Five μl of each donor (anti-cAMP cryptate) and acceptor (cAMP-d2) are added and the plate is incubated another hour at room temperature in the dark and then read using a BMG LABTECH PHERAstar reader (Excitation:337 nm, Emission:620 and 665 nm).
The obtained Delta F(fluorescence) values (665 nm/620 nM) are converted into % cAMP values using the measurements of the cAMP calibrator provided in the kit. For each compound concentration the percentage of cAMP compared to DMSO control value as average±STDEV (each concentration is measured in duplicate) is calculated.
as §4

For a further test, the target named is T4, PTGER2 (EP2) (Homo sapiens, UniProt P43116).
T4 construct: host or cells: HEK 293 (PathHunter PTGER2 b-arrestin cell line)
In words: hEP2 b-arrestin assay (PathHunter HEK 293 PTGER2 b-arrestin cells). As to conditions: antagonistic activity, beta-arrestin assay; read-out: hEP2 b-arr IC50. An outline of the steps:
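Antagonism measured as inhibition of PGE2-driven β-arrestin 2 recruitment (enzyme fragment complementation, luminescence) in engineered HEK293 EP2 cells. Agonist: 5 μM PGE2, ~EC80, 120 min at 37 °C after 15 min compound preincubation; test range 10 μM-2 nM or 1 μM-0.2 nM, duplicates, IC50 fitted.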

T3 sequence (P35408 whole entry): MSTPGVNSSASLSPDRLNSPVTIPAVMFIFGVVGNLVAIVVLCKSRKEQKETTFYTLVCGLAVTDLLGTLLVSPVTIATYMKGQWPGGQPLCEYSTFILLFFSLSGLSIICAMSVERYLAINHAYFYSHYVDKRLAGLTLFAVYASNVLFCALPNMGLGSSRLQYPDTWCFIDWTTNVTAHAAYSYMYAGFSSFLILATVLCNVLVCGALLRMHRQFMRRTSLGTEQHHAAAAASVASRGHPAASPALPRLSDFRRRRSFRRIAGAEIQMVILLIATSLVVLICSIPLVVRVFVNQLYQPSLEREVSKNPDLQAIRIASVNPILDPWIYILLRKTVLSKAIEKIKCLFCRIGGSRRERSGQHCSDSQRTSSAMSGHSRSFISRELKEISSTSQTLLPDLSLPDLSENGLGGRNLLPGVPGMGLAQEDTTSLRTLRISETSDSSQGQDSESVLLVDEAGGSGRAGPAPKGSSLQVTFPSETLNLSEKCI
T1 sequence (P35408 whole entry): as above
T4 sequence (P43116 whole entry): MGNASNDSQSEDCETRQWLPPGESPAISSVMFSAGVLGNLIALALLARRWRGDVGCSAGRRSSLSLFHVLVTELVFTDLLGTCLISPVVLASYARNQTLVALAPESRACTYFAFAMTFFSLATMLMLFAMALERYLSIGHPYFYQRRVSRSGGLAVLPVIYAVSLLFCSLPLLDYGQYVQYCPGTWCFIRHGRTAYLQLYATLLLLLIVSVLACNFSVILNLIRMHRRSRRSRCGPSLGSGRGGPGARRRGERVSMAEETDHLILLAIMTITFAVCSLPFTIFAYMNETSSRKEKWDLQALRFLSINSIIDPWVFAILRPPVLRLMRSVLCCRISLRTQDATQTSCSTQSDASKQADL
T2 sequence (P43116 whole entry): as above

Regarding `CCOc1cc(-c2cc(NCCc3c(C#N)sc4c(OC)cccc34)ncn2)sc1C(=O)O` [Example 27, 5-{6-[2-(2-Cyano-7-methoxy-benzo[b]thiophen-3-yl)-ethylamino]-pyrimidin-4-yl}-3-ethoxy-thiophene-2-carboxylic acid], the results for the 50% inhibitory concentration (IC50) on PTGER4 (EP4), against EP2 receptor and on EP4 receptor were 2 nM, 11 nM and 4 nM, respectively.
For the compound `Cc1sc2c(C)cc(F)cc2c1CCNc1cc(-c2cc3ccc(C(=O)O)cc3[nH]2)ncn1` [Example 80, 2-{6-[2-(5-Fluoro-2,7-dimethyl-benzo[b]thiophen-3-yl)-ethylamino]-pyrimidin-4-yl}-1H-indole-6-carboxylic acid], the IC50 on PTGER2 (EP2) amounted to 13 nM; at EP2 receptor it was 20 nM; against EP4 receptor, 306 nM.
As to `Cc1sc2c(C)cc(F)cc2c1CCNc1cc(-c2ccc(-c3cc(O)no3)cc2)ncn1` [Example 81, 5-(4-{6-[2-(5-Fluoro-2,7-dimethyl-benzo[b]thiophen-3-yl)-ethylamino]-pyrimidin-4-yl}-phenyl)-isoxazol-3-ol [tautomeric form: 5-(4-(6-((2-(5-fluoro-2,7-dimethylbenzo[b]thiophen-3-yl)ethyl)amino)pyrimidin-4-yl)phenyl)isoxazol-3(2H)-one]], the IC50 stood at 202 nM at PTGER4 (EP4), 392 nM against EP2 receptor and 323 nM against EP4 receptor.
As to `CCCc1cc(-c2cc(NCCc3c(C)sc4c(C)cc(F)cc34)ncn2)cc(F)c1C(=O)O` [Example 93, 2-Fluoro-4-{6-[2-(5-fluoro-2,7-dimethyl-benzo[b]thiophen-3-yl)-ethylamino]-pyrimidin-4-yl}-6-propyl-benzoic acid], the IC50 came to 36 nM on PTGER2 (EP2), 35 nM at EP2 receptor and 362 nM against EP4 receptor.
The matching figures for `Cc1sc2c(C)cc(F)cc2c1CCNc1cc(-c2ccc(C(=O)O)c(CC(C)C)c2)ncn1` [Example 94, 4-{6-[2-(5-Fluoro-2,7-dimethyl-benzo[b]thiophen-3-yl)-ethylamino]-pyrimidin-4-yl}-2-isobutyl-benzoic acid]: 45 nM, 92 nM and 302 nM.
On to `CCOc1cc(-c2cc(NCCc3c(C)sc4c(C)cc(F)cc34)ncn2)sc1CC(=O)OC` [Example 95, (3-Ethoxy-5-{6-[2-(5-fluoro-2,7-dimethyl-benzo[b]thiophen-3-yl)-ethylamino]-pyrimidin-4-yl}-thiophen-2-yl)-acetic acid methyl ester], for which the results for the IC50 at PTGER4 (EP4), against EP2 receptor and at EP4 receptor were 484 nM, 647 nM and 855 nM, respectively.
The matching figures for `CCOc1cc(-c2cc(NCCc3c(C)oc4c(OC)cc(Cl)cc34)ncn2)ccc1CC(=O)O` [Example 106, (4-{6-[2-(5-Chloro-7-methoxy-2-methyl-benzofuran-3-yl)-ethylamino]-pyrimidin-4-yl}-2-ethoxy-phenyl)-acetic acid]: 159 nM, 396 nM and 247 nM.
The matching figures for `CCOc1cc(-c2cc(NCCc3c(C)sc4c(C)ccc(Cl)c34)ncn2)ccc1CC(=O)O` [Example 111, (4-{6-[2-(4-Chloro-2,7-dimethyl-benzo[b]thiophen-3-yl)-ethylamino]-pyrimidin-4-yl}-2-ethoxy-phenyl)-acetic acid]: 197 nM, 561 nM and 433 nM.
The corresponding values for `CCOc1cc(-c2cc(NCCc3c(C)sc4c(Cl)cc(F)cc34)ncn2)ccc1CC(=O)O` [Example 113, (4-{6-[2-(7-Chloro-5-fluoro-2-methyl-benzo[b]thiophen-3-yl)-ethylamino]-pyrimidin-4-yl}-2-ethoxy-phenyl)-acetic acid] are 209 nM, 284 nM and 765 nM.
For `CCOc1cc(-c2cc(NCCc3c(C)sc4c(Cl)ccc(Cl)c34)ncn2)ccc1CC(=O)O` [Example 114, (4-{6-[2-(4,7-Dichloro-2-methyl-benzo[b]thiophen-3-yl)-ethylamino]-pyrimidin-4-yl}-2-ethoxy-phenyl)-acetic acid], the concentration for half-maximal inhibition (IC50) on PTGER4 (EP4) was determined as 246 nM; against EP2 receptor it was 477 nM; at EP4 receptor, 781 nM.
Regarding `CCOc1cc(-c2cc(NCCc3csc4ccccc34)ncn2)ccc1OCC(=O)O` [Example 125, {4-[6-(2-Benzo[b]thiophen-3-yl-ethylamino)-pyrimidin-4-yl]-2-ethoxy-phenoxy}-acetic acid], the IC50 on EP2 receptor was found to be 359 nM; at EP4 receptor it was 426 nM.
The matching figures for `CCOc1cc(-c2cc(NCCc3c(C)sc4c(C)cc(F)cc34)ncn2)ccc1NCC(=O)O` [Example 128, (2-Ethoxy-4-{6-[2-(5-fluoro-2,7-dimethyl-benzo[b]thiophen-3-yl)-ethylamino]-pyrimidin-4-yl}-phenylamino)-acetic acid]: 37 nM and 82 nM.
Turning to `CCOc1cc(-c2cc(NCCc3c(C)sc4c(C)cc(F)cc34)ncn2)sc1-c1noc(=O)[nH]1` [Example 159, 3-(3-Ethoxy-5-{6-[2-(5-fluoro-2,7-dimethyl-benzo[b]thiophen-3-yl)-ethylamino]-pyrimidin-4-yl}-thiophen-2-yl)-[1,2,4]oxadiazol-5(4H)-one [tautomeric form: 3-(3-ethoxy-5-(6-((2-(5-fluoro-2,7-dimethylbenzo[b]thiophen-3-yl)ethyl)amino)pyrimidin-4-yl)thiophen-2-yl)-[1,2,4]oxadiazol-5-ol]], the concentration for half-maximal inhibition (IC50) at PTGER4 (EP4) came out at 3 nM; against EP2 receptor it was 11 nM; against EP4 receptor, 5 nM.
The matching figures for “(4-{6-[2-(4,5-Difluoro-7-methoxy-2-methyl-benzofuran-3-yl)-ethylamino]-pyrimidin-4-yl}-2-ethoxy-phenoxy)-acetic acid [Example 123]”: 142 nM, 359 nM and 219 nM.

Usually IC50 stands for the concentration needed to halve the response being measured.
